According to ChEMBL document CHEMBL6127144, “Optimization of a Piperidine CD4-Mimetic Scaffold Sensitizing HIV-1 Infected Cells to Antibody-Dependent Cellular Cytotoxicity” (ACS Med Chem Lett, 2024):
Calls of active or inactive are those of the source. The calls are words filed in the database; no cut-off is given here.

Tests used:
[1] = test system: Human immunodeficiency virus 1; experiment: Antiviral activity against HIV-1 CH58TF infected in human TZM-bl cells assessed as inhibition of viral growth incubated for 48 hrs by luminometer based neutralization assay; type: functional, organism-based; conditions: Human immunodeficiency virus 1, CH58TF
[2] = test system: Human immunodeficiency virus 1; experiment: Antiviral activity against HIV-1 AD8 infected in human TZM-bl cells assessed as inhibition of viral growth incubated for 48 hrs by luminometer based neutralization assay; type: functional, organism-based; conditions: Human immunodeficiency virus 1, AD8, TZM-bl
[3] = test system: Moloney murine leukemia virus; experiment: Antiviral activity against Moloney murine leukemia virus infected in human TZM-bl cells assessed as inhibition of viral growth incubated for 48 hrs by luminometer based neutralization assay; type: functional, organism-based
CD4+ T cell [4] = experiment: Binding affinity to 17b Antibody in HIV-1 AD8 infected human primary CD4+ T cell co-cultured with KHYG-1 cells assessed as antibody driven cell cytotoxicity at 50 uM incubated for 4 to 6 hrs by Alexa Fluor 647 staining based flow cytometric analysis; conditions: time 4-6 hrs
CD4+ T cell [5] = experiment: Binding affinity to 17b Antibody in HIV-1 JRFL infected human primary CD4+ T cell co-cultured with KHYG-1 cells assessed as antibody driven cell cytotoxicity at 50 uM incubated for 4 to 6 hrs by Alexa Fluor 647 staining based flow cytometric analysis; conditions: time 4-6 hrs
CD4+ T cell [6] = experiment: Binding affinity to 17b Antibody in HIV-1 CH58TF infected human primary CD4+ T cell co-cultured with KHYG-1 cells assessed as antibody driven cell cytotoxicity at 50 uM incubated for 4 to 6 hrs by Alexa Fluor 647 staining based flow cytometric analysis; conditions: time 4-6 hrs
[7] = test system: Human immunodeficiency virus 1; experiment: Antiviral activity against HIV-1 JRFL infected in human TZM-bl cells assessed as inhibition of viral growth incubated for 48 hrs by luminometer based neutralization assay; type: functional, organism-based; conditions: Human immunodeficiency virus 1, JRFL
TZM = experiment: Cytotoxicity against human TZM-bl cells upto 100 uM incubated for 48 hrs by cell-titer glo luminescent assay; type: toxicity, cell-based
[8] = test system: Human immunodeficiency virus 1; experiment: Antiviral activity against HIV-1 CH58TF infected in human primary CD4+ T cell co-cultured with KHYG-1 cells assessed as inhibition of viral growth at 50 uM incubated for 4 to 6 hrs in presence of HIV+ plasma by flow cytometric analysis; type: functional, organism-based; conditions: time 4-6 hrs
[9] = test system: Human immunodeficiency virus 1; experiment: Antiviral activity against HIV-1 JRFL infected in human primary CD4+ T cell co-cultured with KHYG-1 cells assessed as inhibition of viral growth at 50 uM incubated for 4 to 6 hrs in presence of HIV+ plasma by flow cytometric analysis; type: functional, organism-based; conditions: time 4-6 hrs
[10] = test system: Human immunodeficiency virus 1; experiment: Antiviral activity against HIV-1 AD8 infected in human primary CD4+ T cell co-cultured with KHYG-1 cells assessed as inhibition of viral growth at 50 uM incubated for 4 to 6 hrs in presence of HIV+ plasma by flow cytometric analysis; type: functional, organism-based; conditions: time 4-6 hrs
CD4+ T cell [11] = experiment: Binding affinity to 17b Antibody in HIV-1 AD8 infected human primary CD4+ T cell by measuring median fluorescence intensity at 50 uM incubated for 48 hrs by Alexa Fluor 647 staining based flow cytometric analysis
CD4+ T cell [12] = experiment: Binding affinity to 17b Antibody in HIV-1 JRFL infected human primary CD4+ T cell by measuring median fluorescence intensity at 50 uM incubated for 48 hrs by Alexa Fluor 647 staining based flow cytometric analysis
CD4+ T cell [13] = experiment: Binding affinity to 17b Antibody in HIV-1 AD8 infected human primary CD4+ T cell at 50 uM incubated for 48 hrs by Alexa Fluor 647 staining based flow cytometric analysis
CD4+ T cell [14] = experiment: Binding affinity to 17b Antibody in HIV-1 JRFL infected human primary CD4+ T cell at 50 uM incubated for 48 hrs by Alexa Fluor 647 staining based flow cytometric analysis

SMILES | IC50 [2] [µM] | IC50 [7] [µM] | Flu intensity (CD4+ T cell [11]) | Flu intensity (CD4+ T cell [12]) | other results
N=C(N)NCC(=O)N1CCN(C(=O)N2CCC[C@H](C(=O)Nc3ccc(Cl)c(F)c3)C2)CC1 | 1.99 | 10.7 | – | – | IC50 [1]: 0.15 µM; IC50 [3]: > 100 µM; Activity (CD4+ T cell [4]): Active; Activity (CD4+ T cell [5]): Active; Activity (CD4+ T cell [6]): Active; Activity (TZM): Non-Toxic; Activity [8]: Active; Activity [9]: inactive
NCCNC(=O)N1CCC[C@H](C(=O)Nc2ccc(Cl)c(F)c2)C1 | > 100 | > 100 | – | – | IC50 [1]: 1.77 µM; Activity [10]: inactive; IC50 [3]: > 100 µM; Activity (CD4+ T cell [4]): inactive; Activity (CD4+ T cell [6]): Active; Activity [8]: Active
O=C(Nc1ccc(Cl)c(F)c1)[C@H]1CCCN(C(=O)N(CCO)CCO)C1 | – | – | 1.27 | 1.04 | –
CN1CCN(C(=O)N2CCC[C@H](C(=O)Nc3ccc(Cl)c(F)c3)C2)CC1 | – | – | 1.5 | 1.14 | –
N=C(N)NCC(=O)N1CCN(C(=O)N2C[C@H](CO)C[C@H](C(=O)Nc3ccc(Cl)c(F)c3)C2)CC1 | 38.6 | – | – | – | –
O=C(Nc1ccc(Cl)c(F)c1)[C@H]1CCCN(C(=O)N2CCN(CC(=O)N3CCCC3)CC2)C1 | – | – | 1.52 | 1.3 | –
CCN1CCN(C(=O)N2CCC[C@H](C(=O)Nc3ccc(Cl)c(F)c3)C2)CC1 | – | – | 1.23 | 1.36 | –
O=C(Nc1ccc(Cl)c(F)c1)[C@H]1CCCN(C(=O)c2ccncc2)C1 | – | – | 1.25 | 0.95 | –
O=C(Nc1ccc(Cl)c(F)c1)[C@H]1CCCN(C(=O)N2CCN(c3ncccn3)CC2)C1 | – | – | – | – | Activity (CD4+ T cell [13]): inactive; Activity (CD4+ T cell [14]): inactive
C[C@H](N)C(=O)N1CCN(C(=O)N2CCC[C@H](C(=O)Nc3ccc(Cl)c(F)c3)C2)CC1 | 1.83 | 5.62 | 2.53 | 2.02 | –
NC(=O)[C@@H]1CCCN1C(=O)N1CCC[C@H](C(=O)Nc2ccc(Cl)c(F)c2)C1 | – | – | 1.23 | 1.01 | –
N=C(N)N1CCC[C@@H]1C(=O)N1CCN(C(=O)N2C[C@H](CO)C[C@H](C(=O)Nc3ccc(Cl)c(F)c3)C2)CC1 | > 100 | – | – | – | –
CN(C)CCCN1CCN(C(=O)N2CCC[C@H](C(=O)Nc3ccc(Cl)c(F)c3)C2)CC1 | – | – | 1.39 | 1.42 | –
O=C(Nc1ccc(Cl)c(F)c1)[C@H]1CCCN(C(=O)N2CCN(c3ccccn3)CC2)C1 | – | – | – | – | Activity (CD4+ T cell [13]): inactive; Activity (CD4+ T cell [14]): inactive
O=C(Nc1ccc(Cl)c(F)c1)[C@H]1CCCN(C(=O)N2CCN(c3cccc(C(F)(F)F)c3)CC2)C1 | – | – | – | – | Activity (CD4+ T cell [13]): inactive; Activity (CD4+ T cell [14]): inactive
CC(=O)NCSC[C@H](N)C(=O)N1CCN(C(=O)N2CCC[C@H](C(=O)Nc3ccc(Cl)c(F)c3)C2)CC1 | 1.86 | 40 | 1.75 | 1.55 | Activity (CD4+ T cell [4]): Active
N=C(N)N1CCC[C@@H]1C(=O)N1CCN(C(=O)N2CCC[C@H](C(=O)Nc3ccc(Cl)c(F)c3)C2)CC1 | 2.92 | 8.28 | – | – | IC50 [1]: 0.14 µM; Activity [10]: Active; IC50 [3]: > 100 µM; Activity (CD4+ T cell [4]): Active; Activity (CD4+ T cell [5]): Active; Activity (CD4+ T cell [6]): Active; Activity (TZM): Non-Toxic; Activity [8]: Active; Activity [9]: inactive
O=C(Nc1ccc(Cl)c(F)c1)[C@H]1CCCN(C(=O)N2CCCCC2)C1 | – | – | 1.19 | 0.96 | –
O=C(Nc1ccc(Cl)c(F)c1)[C@H]1CCCN(C(=O)N2CCC[C@H]2CO)C1 | – | – | 1.26 | 1.11 | –
O=C(Nc1ccc(Cl)c(F)c1)[C@H]1CCCN(C(=O)N2CCOCC2)C1 | – | – | 1.49 | 1.05 | –
O=C(Nc1ccc(Cl)c(F)c1)[C@H]1CCCN(C(=O)c2c[nH]cn2)C1 | – | – | 1.07 | 0.93 | –
C[C@@H](O)[C@H](N)C(=O)N1CCN(C(=O)N2CCC[C@H](C(=O)Nc3ccc(Cl)c(F)c3)C2)CC1 | 1.55 | 13.7 | inactive | inactive | –
N=C(N)NCCC[C@H](N)C(=O)N1CCN(C(=O)N2CCC[C@H](C(=O)Nc3ccc(Cl)c(F)c3)C2)CC1 | 1.27 | ≥ 72.6 | 2.23 | 1.61 | IC50 [1]: 0.22 µM; IC50 [3]: > 100 µM; Activity (CD4+ T cell [4]): Active; Activity (CD4+ T cell [6]): Active; Activity (TZM): Non-Toxic; Activity [8]: Active
CNCc1ccc2c(c1)C[C@H](CNC(=N)N)[C@H]2NC(=O)C(=O)Nc1ccc(Cl)c(F)c1 | 0.95 | 4.6 | – | – | IC50 [1]: 0.07 µM; IC50 [3]: > 100 µM; Activity (CD4+ T cell [6]): Active; Activity [8]: Active
N[C@@H](Cc1ccc(O)cc1)C(=O)N1CCN(C(=O)N2CCC[C@H](C(=O)Nc3ccc(Cl)c(F)c3)C2)CC1 | 2.18 | 28 | 2.48 | 2.19 | –
COCCN1CCN(C(=O)N2CCC[C@H](C(=O)Nc3ccc(Cl)c(F)c3)C2)CC1 | – | – | 1.28 | 1.43 | –
O=C(Nc1ccc(Cl)c(F)c1)[C@H]1CCCN(C(=O)N2CCN(c3ccccc3)CC2)C1 | – | – | – | – | Activity (CD4+ T cell [13]): inactive; Activity (CD4+ T cell [14]): inactive
NC(=O)C[C@H](N)C(=O)N1CCN(C(=O)N2CCC[C@H](C(=O)Nc3ccc(Cl)c(F)c3)C2)CC1 | 6.21 | 24.6 | 2.14 | 1.53 | –
